Inconclusive results are not listed.
System: BDF1 mice, B16 melanoma s.c., survival/tumor T/C
Experiment: NCI In Vivo Anticancer Drug Screen. Data for tumor model B16 Melanoma (subcutaneous) in B6D2F1 (BDF1) mice
Procedure: The antitumor activity of compounds was measured in mice bearing transplantable tumors. Survival or tumor size were measured and the results are expressed as the measurement made in the treated group (T) divided by the measurement made in the vehicle treated control group (C). The tumor model used in this assay is B16 Melanoma (subcutaneous) in B6D2F1 (BDF1) mice

COC(=O)C[C@](O)(CCC(C)(C)O)C(=O)O[C@@H]1C(OC)=C[C@]23CCCN2CCc2cc4c(cc2[C@H]13)OCO4
T/C (endpoint: median survival time, dose: 0.7 mg/kg/injection, schedule: Q01DX009 (ip), vehicle: saline, higher = longer survival): 101 % of control | T/C (endpoint: median survival time, dose: 1.0 mg/kg/injection, schedule: Q01DX009 (ip), vehicle: saline, higher = longer survival): 87 % of control | T/C (endpoint: median survival time, dose: 1.5 mg/kg/injection, schedule: Q01DX009 (ip), vehicle: saline, higher = longer survival): 91 % of control | T/C (endpoint: median survival time, dose: 2.3 mg/kg/injection, schedule: Q01DX009 (ip), vehicle: saline, higher = longer survival): 105 % of control

CC/C(=C(/CC)c1ccc(O)cc1)c1ccc(O)cc1
T/C (endpoint: median survival time, dose: 6.0 mg/kg/injection, schedule: Q01DX009 (ip), vehicle: Klucel (hydroxypropylcellulose) (HPC), higher = longer survival): 93 % of control | T/C (endpoint: median survival time, dose: 12.0 mg/kg/injection, schedule: Q01DX009 (ip), vehicle: Klucel (hydroxypropylcellulose) (HPC), higher = longer survival): 100 % of control | T/C (endpoint: median survival time, dose: 24.0 mg/kg/injection, schedule: Q01DX009 (ip), vehicle: Klucel (hydroxypropylcellulose) (HPC), higher = longer survival): 106 % of control | T/C (endpoint: median survival time, dose: 48.0 mg/kg/injection, schedule: Q01DX009 (ip), vehicle: Klucel (hydroxypropylcellulose) (HPC), higher = longer survival): 97 % of control

ClCC[N-]CC[N-]CCCl.ClCC[N-]CC[N-]CCCl.[O-][Cl+3]([O-])([O-])O.[Zn+2]
T/C (endpoint: median survival time, dose: 2.5 mg/kg/injection, schedule: Q01DX009 (ip), vehicle: saline with Tween-80, higher = longer survival): 102 % of control | T/C (endpoint: median survival time, dose: 5.0 mg/kg/injection, schedule: Q01DX009 (ip), vehicle: saline with Tween-80, higher = longer survival): 94 % of control | T/C (endpoint: median survival time, dose: 10.0 mg/kg/injection, schedule: Q01DX009 (ip), vehicle: saline with Tween-80, higher = longer survival): 115 % of control | T/C (endpoint: median survival time, dose: 20.0 mg/kg/injection, schedule: Q01DX009 (ip), vehicle: saline with Tween-80, higher = longer survival): 89 % of control

O=NN(CCF)C(=O)NCCO
T/C (endpoint: median survival time, dose: 3.11 mg/kg/injection, schedule: Q01DX007 (ip), vehicle: water, higher = longer survival): 98 % of control | T/C (endpoint: median survival time, dose: 5.18 mg/kg/injection, schedule: Q01DX007 (ip), vehicle: water, higher = longer survival): 112 % of control | T/C (endpoint: median survival time, dose: 8.64 mg/kg/injection, schedule: Q01DX007 (ip), vehicle: water, higher = longer survival): 123 % of control

NCCc1nc(-c2nc(C(=O)O)cs2)cs1
T/C (endpoint: median survival time, dose: 6.25 mg/kg/injection, schedule: Q01DX009 (ip), vehicle: water, higher = longer survival): 98 % of control | T/C (endpoint: median survival time, dose: 12.5 mg/kg/injection, schedule: Q01DX009 (ip), vehicle: water, higher = longer survival): 95 % of control | T/C (endpoint: median survival time, dose: 25.0 mg/kg/injection, schedule: Q01DX009 (ip), vehicle: water, higher = longer survival): 91 % of control | T/C (endpoint: median survival time, dose: 50.0 mg/kg/injection, schedule: Q01DX009 (ip), vehicle: water, higher = longer survival): 92 % of control | T/C (endpoint: median survival time, dose: 100.0 mg/kg/injection, schedule: Q01DX009 (ip), vehicle: water, higher = longer survival): 95 % of control

c1ccc(-c2csc3c4ccccc4c4ccccc4[n+]23)cc1
T/C (endpoint: median survival time, dose: 0.5 mg/kg/injection, schedule: Q01DX009 (ip), vehicle: suspension in saline, higher = longer survival): 114 % of control | T/C (endpoint: median survival time, dose: 1.0 mg/kg/injection, schedule: Q01DX009 (ip), vehicle: suspension in saline, higher = longer survival): 124 % of control

CN(Cc1cnc2nc(N)nc(N)c2n1)c1ccc(C(=O)N[C@@H](CCC(=O)O)C(=O)O)cc1
T/C (endpoint: median survival time, dose: 0.5 mg/kg/injection, schedule: Q01DX009 (ip), vehicle: saline with Tween-80, higher = longer survival): 100 % of control | T/C (endpoint: median survival time, dose: 1.0 mg/kg/injection, schedule: Q01DX009 (ip), vehicle: saline with Tween-80, higher = longer survival): 100 % of control | T/C (endpoint: median survival time, dose: 2.0 mg/kg/injection, schedule: Q01DX009 (ip), vehicle: saline with Tween-80, higher = longer survival): 89 % of control | T/C (endpoint: median tumor weight (est.), dose: 0.5 mg/kg/injection, schedule: Q01DX009 (ip), vehicle: saline with Tween-80, higher = larger tumour): 173 % of control | T/C (endpoint: median tumor weight (est.), dose: 1.0 mg/kg/injection, schedule: Q01DX009 (ip), vehicle: saline with Tween-80, higher = larger tumour): 81 % of control

C=CCN1/C(=C/C=C\c2sc3ccccc3[n+]2CC=C)Sc2ccccc21
T/C (endpoint: median survival time, dose: 125.0 micrograms/kg/injection, schedule: Q01DX009 (ip), vehicle: suspension in saline, higher = longer survival): 121 % of control

CC1=C(/C=C/C(C)=C/C=C/C(C)=C/C(=O)O)C(C)(C)CCC1
T/C (endpoint: median survival time, dose: 4.0 mg/kg/injection, schedule: Q01DX009 (ip), vehicle: saline with Tween-80, higher = longer survival): 88 % of control

CCN(CC)CCNc1ccc(CO)c2sc3ccccc3c(=O)c12
T/C (endpoint: median survival time, dose: 34.0 mg/kg/injection, schedule: Q01DX005 (ip), vehicle: water, higher = longer survival): 105 % of control | T/C (endpoint: median tumor weight (est.), dose: 34.0 mg/kg/injection, schedule: Q01DX005 (ip), vehicle: water, higher = larger tumour): 55 % of control | T/C (endpoint: median tumor weight (est.), dose: 50.0 mg/kg/injection, schedule: Q01DX005 (ip), vehicle: water, higher = larger tumour): 72 % of control | T/C (endpoint: median tumor weight (est.), dose: 75.0 mg/kg/injection, schedule: Q01DX005 (ip), vehicle: water, higher = larger tumour): 28 % of control

From PubChem BioAssay AID194 (DTP/NCI, 2004)
